# According to ChEMBL document CHEMBL1150872, “Four new bioactive lobane diterpenes of the soft coral Lobophytum pauciflorum from Mindoro, Philippines” (J Nat Prod, 1998):
# The source made the active and inactive calls. The rule behind the calls is not given here.
# What was measured:
# [1] = tested on: Cladosporium cucumerinum; assay: Antifungal activity against Cladosporium cucumerinum at 0.8 umol after 2 days; type: functional
# [2] = tested on: Cladosporium cucumerinum; assay: Antifungal activity against Cladosporium cucumerinum at 0.4 umol after 2 days; type: functional
# [3] = tested on: Cladosporium cucumerinum; assay: Antifungal activity against Cladosporium cucumerinum at 0.2 umol after 2 days; type: functional
# [4] = tested on: Cladosporium cucumerinum; assay: Antifungal activity against Cladosporium cucumerinum at 0.1 umol after 2 days; type: functional
# [5] = Toxicity in Artemia salina after 48 hrs; type: organism-based; details: in vivo
# [6] = tested on: Bacillus subtilis; assay: Antibacterial activity against Bacillus subtilis 168 after 24 hrs by agar diffusion assay; type: functional, subsp. subtilis str. 168
# [7] = tested on: Saccharomyces cerevisiae; assay: Antifungal activity against Saccharomyces cerevisiae after 2 days; type: functional
# [8] = tested on: Staphylococcus aureus; assay: Antibacterial activity against Staphylococcus aureus […] after 24 hrs by agar diffusion assay; type: functional, organism-based
# [9] = tested on: Escherichia coli; assay: Antibacterial activity against Escherichia coli ATCC 25922 after 24 hrs by agar diffusion assay; type: functional, organism-based
Structure (SMILES),inhibition zone (IZ) [1],inhibition zone (IZ) [2],inhibition zone (IZ) [3],inhibition zone (IZ) [4],LC50 at 48 h [5],inhibition zone (IZ) [6],inhibition zone (IZ) [7],Activity [8],Activity [9]
C=C[C@@]1(C)CC[C@H](/C(C)=C/C[C@@H](O)C(C)(C)O)C[C@@H]1C(=C)C,17 mm,14 mm,9 mm,6 mm,10.5 µg/mL,,,,
C=C[C@@]1(C)CC[C@H](C2=CC[C@H](C(C)(C)O)OC2=O)C[C@@H]1C(=C)C [LOBATRIENOLIDE],15 mm,13 mm,9 mm,6 mm,,,,,
COC1=C(C)C(=O)c2cc(=O)n(C)c(C)c2C1=O [MIMOSAMYCIN],,18 mm,15 mm,,,,,,
C=C[C@@]1(C)CC[C@H](C2=CCC(O)C(C)(C)OC2)C[C@@H]1C(=C)C (stereo partly drawn),17 mm,14 mm,10 mm,5 mm,,,,,
C=C[C@@]1(C)CC[C@H](C2=CC[C@H](C(C)(C)OC(C)=O)OC2)C[C@@H]1C(=C)C,,10 mm,8 mm,6 mm,34 µg/mL,,,,
C=C[C@@]1(C)CC[C@H](/C(C)=C/C[C@@H](OC(C)=O)C(C)(C)O)C[C@@H]1C(=C)C,13 mm,9 mm,5 mm,2 mm,19.1 µg/mL,,,,
C=C[C@@]1(C)CC[C@H](/C(C)=C/C[C@H]2OC2(C)C)C[C@@H]1C(=C)C,5 mm,0 mm,0 mm,0 mm,0.64 µg/mL,,,,
C=C[C@@]1(C)CC[C@H](/C(=C/C[C@@H](O)C(C)(C)O)COC(C)=O)C[C@@H]1C(=C)C,30 mm,20 mm,10 mm,5 mm,59 µg/mL,,,,
C=C[C@@]1(C)CC[C@H](C2=CC[C@H](C(C)(C)O)OC2)C[C@@H]1C(=C)C [LOBATRIENE],15 mm,14 mm,10 mm,5 mm,19.8 µg/mL,8 mm,7 mm,inactive,inactive
C=C[C@@]1(C)CC[C@H](/C(C)=C/C=C/C(C)(C)O)C[C@@H]1C(=C)C [FUSCOL],2 mm,0 mm,0 mm,0 mm,4.18 µg/mL,,,,
C=C[C@@]1(C)CC[C@H](/C(=C/C[C@@H](OC(C)=O)C(C)(C)O)COC(C)=O)C[C@@H]1C(=C)C,15 mm,13 mm,10 mm,5 mm,60.4 µg/mL,,,,
